Patent US5508428A, “Spiro compound” (Daiichi Phamaceutical Co., Ltd., priority 1988, dated 1996)
In brackets after ≈: the same amount, converted by molar mass.

Legend:
Type in all cases: cell-based
[1] = tested on: E. coli, NIHJ; test: Antibacterial activity (MIC), E. coli NIHJ; conditions: for MIC: Escherichia coli
Procedure: (§1) The antibacterial activity assays were performed by the method specified by Japan Society of Chemotherapy (Chemotherapy 29(1), 76 (1981). The table of antibacterial activity is followed by the reaction schemes for the synthesis of various spiro ring-containing cyclic amine derivatives, intermediate compounds for synthesis of quinolone rings and synthesis of various spiro compounds.

[2] = tested on: S. flexneri, 2A 5503; test: Antibacterial activity (MIC), S. flexneri 2A 5503; conditions: for MIC: Shigella flexneri, 2A5503
Procedure: as §1

[3] = tested on: Pr. vulgaris, 08601; test: Antibacterial activity (MIC), Pr. vulgaris 08601; conditions: for MIC: Proteus vulgaris
Procedure: as §1

[4] = tested on: Pr. mirabillis, IF0-3849; test: Antibacterial activity (MIC), Pr. mirabillis IF0-3849
Procedure: as §1

[5] = tested on: Ser. marcescens, 10100; test: Antibacterial activity (MIC), Ser. marcescens 10100; conditions: for MIC: Serratia marcescens, 10100, Ser. marcescens; for Antibacterial Activity (MIC): Ser. marcescens
Procedure: as §1

[6] = tested on: Ps. aeruginosa, 32104; test: Antibacterial activity (MIC), Ps. aeruginosa 32104; conditions: for MIC: Pseudomonas aeruginosa, 32104, Ps. aeruginosa; for Antibacterial Activity (MIC): Ps. aeruginosa
Procedure: as §1

[7] = tested on: Ps. aeruginosa, 32121; test: Antibacterial activity (MIC), Ps. aeruginosa 32121; conditions: for MIC: Pseudomonas aeruginosa, 32121, Ps. aeruginosa; for Antibacterial Activity (MIC): Ps. aeruginosa
Procedure: as §1

[8] = tested on: Ps. maltophilia, IID-1275; test: Antibacterial activity (MIC), Ps. maltophilia IID-1275; conditions: for MIC: Stenotrophomonas maltophilia, IID1275, Ps. maltophilia; for Antibacterial Activity (MIC): Ps. maltophilia
Procedure: as §1

[9] = tested on: S. aureus, 209P; test: Antibacterial activity (MIC), S. aureus 209P; conditions: for MIC: Staphylococcus aureus
Procedure: as §1

[10] = tested on: S. epidermidis, 56500; test: Antibacterial activity (MIC), S. epidermidis 56500; conditions: for MIC: Staphylococcus epidermidis, 56500, S. epidermidis; for Antibacterial Activity (MIC): S. epidermidis
Procedure: as §1

[11] = tested on: Str. pyogenes, G-36; test: Antibacterial activity (MIC), Str. pyogenes G-36; conditions: for MIC: Streptococcus pyogenes, G36, Str. pyogenes; for Antibacterial Activity (MIC): Str. pyogenes
Procedure: as §1

[12] = tested on: Str. faecalis, ATCC-19433; test: Antibacterial activity (MIC), Str. faecalis ATCC-19433; conditions: for MIC: Enterococcus faecalis, ATCC19433, Str. faecalis; for Antibacterial Activity (MIC): Str. faecalis
Procedure: as §1

NC1CN(c2c(F)cc3c(=O)c(C(=O)O)cn(C4CC4)c3c2Cl)CC12CC2 (racemic) [Compound 32, 7-(7-Amino-5-azaspiro[2.4]heptan-5-yl)-8-chloro-1-cyclopropyl-6-fluoro-1,4-dihydro-4-oxoquinoline-3-carboxylic Acid]
MIC [1]: ≤ 0.05 µg/mL
MIC [2]: ≤ 0.05 µg/mL
MIC [3]: ≤ 0.05 µg/mL
MIC [4]: ≤ 0.05 µg/mL
MIC [5]: ≤ 0.05 µg/mL
MIC [6]: 0.1 µg/mL (≈ 0.255 µM)
MIC [7]: ≤ 0.05 µg/mL
MIC [8]: ≤ 0.05 µg/mL
MIC [9]: ≤ 0.05 µg/mL
MIC [10]: 0.1 µg/mL (≈ 0.255 µM)
MIC [11]: 0.1 µg/mL (≈ 0.255 µM)
MIC [12]: 0.1 µg/mL (≈ 0.255 µM)

NC1CN(c2cc3c(cc2F)c(=O)c(C(=O)O)cn3C2CC2)CC12CC2 (racemic) [Compound 33, 7-(7-Amino-5-azaspiro[2.4]heptan-5-yl)-1-cyclopropyl-6-fluoro-1,4-dihydro-4-oxoquinoline-3-carboxylic Acid]
MIC [1]: ≤ 0.05 µg/mL
MIC [2]: ≤ 0.05 µg/mL
MIC [3]: ≤ 0.05 µg/mL
MIC [4]: ≤ 0.05 µg/mL
MIC [5]: 0.1 µg/mL (≈ 0.28 µM)
MIC [6]: 0.1 µg/mL (≈ 0.28 µM)
MIC [7]: ≤ 0.05 µg/mL
MIC [8]: 0.1 µg/mL (≈ 0.28 µM)
MIC [9]: ≤ 0.05 µg/mL
MIC [10]: 0.2 µg/mL (≈ 0.56 µM)
MIC [11]: 0.39 µg/mL (≈ 1.09 µM)
MIC [12]: 0.39 µg/mL (≈ 1.09 µM)

NC1CN(c2c(F)cc3c(=O)c(C(=O)O)cn(C4CC4)c3c2Cl)CC12CC2 (single isomer, unassigned) [Compound 32a, 7-(7-amino-5-azaspiro[2.4]heptan-5-yl)-8-chloro-1-cyclopropyl-6-fluoro-1,4-dihydro-4-oxoquinoline-3-carboxylic acid]
MIC [1]: ≤ 0.05 µg/mL
MIC [2]: ≤ 0.05 µg/mL
MIC [3]: ≤ 0.05 µg/mL
MIC [4]: 0.1 µg/mL (≈ 0.255 µM)
MIC [5]: 0.1 µg/mL (≈ 0.255 µM)
Antibacterial Activity (MIC) [6]: 0.39 µg/mL
MIC [7]: 0.1 µg/mL (≈ 0.255 µM)
MIC [8]: 0.1 µg/mL (≈ 0.255 µM)
MIC [9]: 0.1 µg/mL (≈ 0.255 µM)
Antibacterial Activity (MIC) [10]: 0.20 µg/mL
MIC [11]: 0.78 µg/mL (≈ 1.99 µM)
Antibacterial Activity (MIC) [12]: 0.39 µg/mL

NC1CN(c2c(F)cc3c(=O)c(C(=O)O)cn(C4CC4)c3c2Cl)CC12CC2 (single isomer, unassigned) [Compound 32b, 7-(7-amino-5-azaspiro[2.4]heptan-5-yl)-8-chloro-1-cyclopropyl-6-fluoro-1,4-dihydro-4-oxoquinoline-3-carboxylic acid]
Antibacterial Activity (MIC) [1]: ≤ 0.05 µg/mL
Antibacterial Activity (MIC) [2]: ≤ 0.05 µg/mL
Antibacterial Activity (MIC) [3]: ≤ 0.05 µg/mL
Antibacterial Activity (MIC) [4]: ≤ 0.05 µg/mL
Antibacterial Activity (MIC) [5]: ≤ 0.05 µg/mL
Antibacterial Activity (MIC) [6]: 0.10 µg/mL
Antibacterial Activity (MIC) [7]: ≤ 0.05 µg/mL
Antibacterial Activity (MIC) [8]: ≤ 0.05 µg/mL
Antibacterial Activity (MIC) [9]: ≤ 0.05 µg/mL
Antibacterial Activity (MIC) [10]: ≤ 0.05 µg/mL
Antibacterial Activity (MIC) [11]: 0.39 µg/mL
Antibacterial Activity (MIC) [12]: 0.10 µg/mL

NC1CN(c2c(F)cc3c(=O)c(C(=O)O)cn(C4CC4)c3c2F)CC12CC2 (single isomer, unassigned; (+)) [Compound 31a, (+)-7-(7-Amino-5-azaspiro[2.4]heptan-5-yl)-1-cyclopropyl-6,8-difluoro-1,4-dihydro-4-oxoquinoline-3-carboxylic Acid]
MIC [1]: ≤ 0.05 µg/mL
MIC [2]: ≤ 0.05 µg/mL
MIC [3]: ≤ 0.05 µg/mL
MIC [4]: 0.1 µg/mL (≈ 0.266 µM)
MIC [5]: ≤ 0.05 µg/mL
Antibacterial Activity (MIC) [6]: 0.20 µg/mL
MIC [7]: 0.1 µg/mL (≈ 0.266 µM)
MIC [8]: 0.1 µg/mL (≈ 0.266 µM)
MIC [9]: 0.1 µg/mL (≈ 0.266 µM)
Antibacterial Activity (MIC) [10]: 0.39 µg/mL
Antibacterial Activity (MIC) [11]: 1.57 µg/mL
Antibacterial Activity (MIC) [12]: 0.79 µg/mL

NC1CN(c2c(F)cc3c(=O)c(C(=O)O)cn(C4CC4)c3c2F)CC12CC2 (single isomer, unassigned; (-)) [Compound 31b, (-)-7-(7-Amino-5-azaspiro[2.4]heptan-5-yl)-1-cyclopropyl-6,8-difluoro-1,4-dihydro-4-oxoquinoline-3-carboxylic Acid]
Antibacterial Activity (MIC) [1]: ≤ 0.05 µg/mL
Antibacterial Activity (MIC) [2]: ≤ 0.05 µg/mL
Antibacterial Activity (MIC) [3]: ≤ 0.05 µg/mL
Antibacterial Activity (MIC) [4]: ≤ 0.05 µg/mL
Antibacterial Activity (MIC) [5]: ≤ 0.05 µg/mL
Antibacterial Activity (MIC) [6]: ≤ 0.05 µg/mL
Antibacterial Activity (MIC) [7]: ≤ 0.05 µg/mL
Antibacterial Activity (MIC) [8]: ≤ 0.05 µg/mL
Antibacterial Activity (MIC) [9]: ≤ 0.05 µg/mL
Antibacterial Activity (MIC) [10]: ≤ 0.05 µg/mL
Antibacterial Activity (MIC) [11]: 0.10 µg/mL
Antibacterial Activity (MIC) [12]: 0.10 µg/mL

NC1CN(c2nc3c(cc2F)c(=O)c(C(=O)O)cn3C2CC2)CC12CC2 (single isomer, unassigned; (-)) [Compound 35b, (-)-7-(7-Amino-5-azaspiro[2.4]heptan-5-yl)-1-cyclopropyl-6-fluoro-4-oxo-1,4-dihydro-1,8-naphthyridine-3-carboxylic acid]
MIC [1]: ≤ 0.05 µg/mL
MIC [2]: ≤ 0.05 µg/mL
MIC [3]: ≤ 0.05 µg/mL
MIC [4]: ≤ 0.05 µg/mL
MIC [5]: ≤ 0.05 µg/mL
MIC [6]: ≤ 0.05 µg/mL
MIC [7]: ≤ 0.05 µg/mL
MIC [8]: ≤ 0.05 µg/mL
MIC [9]: ≤ 0.05 µg/mL
MIC [10]: 0.1 µg/mL (≈ 0.279 µM)
MIC [11]: 0.78 µg/mL (≈ 2.18 µM)
MIC [12]: 0.39 µg/mL (≈ 1.09 µM)

C[C@H]1COc2c(N3CC(N)C4(CC4)C3)c(F)cc3c(=O)c(C(=O)O)cn1c23 (single isomer, unassigned; (-)) [Compound 36b]
MIC [1]: ≤ 0.05 µg/mL
MIC [2]: ≤ 0.05 µg/mL
MIC [3]: ≤ 0.05 µg/mL
MIC [4]: 0.1 µg/mL (≈ 0.268 µM)
MIC [5]: 0.2 µg/mL (≈ 0.536 µM)
MIC [6]: 0.2 µg/mL (≈ 0.536 µM)
MIC [7]: 0.1 µg/mL (≈ 0.268 µM)
MIC [8]: 0.39 µg/mL (≈ 1.04 µM)
MIC [9]: ≤ 0.05 µg/mL
MIC [10]: 0.1 µg/mL (≈ 0.268 µM)
MIC [11]: 0.39 µg/mL (≈ 1.04 µM)
MIC [12]: 0.39 µg/mL (≈ 1.04 µM)

Cc1c(N2CC(N)C3(CC3)C2)c(F)cc2c(=O)c(C(=O)O)cn(C3CC3)c12 (single isomer, unassigned; (-)) [Compound 55b, (-)-7-(7-Amino-5-azaspiro[2.3]heptan-5-yl)-1-cyclopropyl-6-fluoro-8-methyl-4-oxo-1,4-dihydroquinoline-3-carboxylic acid]
MIC [1]: ≤ 0.05 µg/mL
MIC [2]: ≤ 0.05 µg/mL
MIC [3]: ≤ 0.05 µg/mL
MIC [4]: ≤ 0.05 µg/mL
MIC [5]: 0.1 µg/mL (≈ 0.269 µM)
MIC [6]: ≤ 0.05 µg/mL
MIC [7]: ≤ 0.05 µg/mL
MIC [8]: ≤ 0.05 µg/mL
MIC [9]: ≤ 0.05 µg/mL
MIC [10]: ≤ 0.05 µg/mL
MIC [11]: 0.1 µg/mL (≈ 0.269 µM)
MIC [12]: 0.1 µg/mL (≈ 0.269 µM)

NC1CN(c2c(F)cc3c(=O)c(C(=O)O)cn(C4CC4)c3c2F)CC12CC2 (stereo not drawn) [Compound 31, 7-(7-Amino-5-azaspiro[2.4]heptan-5-yl)-1-cyclopropyl-6,8-difluoro-1,4-dihydro-4-oxoquinoline-3-carboxylic Acid]
MIC [1]: ≤ 0.05 µg/mL
MIC [2]: ≤ 0.05 µg/mL
MIC [3]: ≤ 0.05 µg/mL
MIC [4]: ≤ 0.05 µg/mL
MIC [5]: ≤ 0.05 µg/mL
MIC [6]: 0.1 µg/mL (≈ 0.266 µM)
MIC [7]: ≤ 0.05 µg/mL
MIC [8]: ≤ 0.05 µg/mL
MIC [9]: ≤ 0.05 µg/mL
MIC [10]: 0.1 µg/mL (≈ 0.266 µM)
MIC [11]: 0.39 µg/mL (≈ 1.04 µM)
MIC [12]: 0.2 µg/mL (≈ 0.533 µM)

N[C@@H]1CN(c2cc3c(cc2F)c(=O)c(C(=O)O)cn3C2CC2)CC12CC2 [Compound 33b, (-)-7-[7-(S)-amino-5-azaspiro[2.3]heptan-5-yl)-1-cyclopropyl-6-fluoro-1,4-dihydro-4-oxoquinoline-3-carboxylic acid]
MIC [1]: ≤ 0.05 µg/mL
MIC [2]: ≤ 0.05 µg/mL
MIC [3]: ≤ 0.05 µg/mL
MIC [4]: ≤ 0.05 µg/mL
MIC [5]: ≤ 0.05 µg/mL
MIC [6]: ≤ 0.05 µg/mL
MIC [7]: ≤ 0.05 µg/mL
MIC [8]: 0.1 µg/mL (≈ 0.28 µM)
MIC [9]: ≤ 0.05 µg/mL
MIC [10]: 0.1 µg/mL (≈ 0.28 µM)
MIC [11]: 0.2 µg/mL (≈ 0.56 µM)
MIC [12]: 0.2 µg/mL (≈ 0.56 µM)
